The record followed here is patent US12011475B2, “Polypeptide, polypeptide fragment, derivative thereof, and applications thereof” (CHENGDU HUITAI BIOMEDICINE CO., LTD., priority 2017, dated 2024).

The test system of one experiment is active TGF-β. The experiment is described as follows: Active TGF-β in lung tissue by ELISA (Examples 9-10). Particulars: vs model group; 6 mg/kg peptide + 3 mg/kg bleomycin intratracheal; p<0.05; FIG. 10. The format is in vivo, rat. How it is done: (§1) The rats were weighed before administration, intramuscular injection of Zoletil anesthetic solution, the dose was 65 mg/kg. After the rats entered the stage III anesthesia, the experimental rats were bond in the incline lateral decubitus. A size 12 gavage needle was inserted into rat trachea through oral cavity along the glottis to infuse the drug. The experimental animals were fed normally from the 1st day to the 14th day after intratracheal administration, and were weighed regularly every day without restriction of feed or drinking water. […]
The rat lung tissue in the model group, the control group and the N4 treatment group of Example 9 was taken, and homogenized using RIPA lysate (100 mg of lung tissue corresponding to 1 mL of lysate), centrifuged and the supernatant was taken, and then the protein concentration was determined by BCA method. Equal amounts of protein samples were taken and the active TGF-β content was measured by enzyme-linked immunosorbent assay ELISA (Promega, Cat. No. G7591) (the result is shown in FIG. 10), and one-way ANOVA was used for biostatistical analysis.
On the technique in general: An ELISA detects its analyte on a solid surface through an enzyme-linked reagent.

The next experiment deals with TGF-β signaling pathway. Put plainly: ctgf, Collagen I and Collagen III in lung tissue by RT-qPCR (Example 11). The following applies: vs model group; 6 mg/kg peptide + 3 mg/kg bleomycin intratracheal; 18S RNA reference; p<0.05; FIG. 11. The format is in vivo, rat. The procedure:
as §1
The rat lung tissue in the model group, the control group and the N4 treatment group of Example 9 was taken. […] After obtaining cDNA using reverse transcription, fluorescence quantitative PCR (qPCR) kit (Applied Biosystems, Cat. No. 4319413E) was used to detect the expression levels of connective tissue growth factor ctgf (forward primer: 5′-[…]-3′, reverse primer: 5′-[…]-3′) downstream of the TGF-β pathway, Collagen I (forward primer: 5′-TGCCGATGTCGCTATCCA-3′, reverse primer: 5′-[…]-3′) and Collagen III (forward primer: 5′-[…]-3′, reverse primer: 5′-[…]-3′). […]
(In general: Quantitative PCR measures a nucleic acid by following its amplification.)

The test system of experiment [1] is rat with pulmonary fibrosis induced by bleomycin. Put plainly: Hydroxyproline content in lung tissue homogenate, acid hydrolysis (Example 12). The experiment is classed as in vivo. The following applies: vs model group; 6 mg/kg peptide + 3 mg/kg bleomycin intratracheal; p<0.05; FIG. 12. The procedure: The rats were weighed before administration, intramuscular injection of Zoletil anesthetic solution, the dose was 65 mg/kg. After the rats entered the stage III anesthesia, the experimental rats were bond in the incline lateral decubitus. A size 12 gavage needle was inserted into rat trachea through oral cavity along the glottis to infuse the drug. The experimental animals were fed normally from the 1st day to the 14th day after intratracheal administration, and were weighed regularly every day without restriction of feed or drinking water.
The rats in model group were intratracheally instilled with bleomycin (3 mg/kg); the rats in control group were intratracheally instilled with an equal volume of saline; the rats in treatment groups were intratracheally instilled with bleomycin (3 mg/kg) and corresponding therapeutic drug (6 mg/kg) simultaneously.
The lung tissue in the model group, the control group and the N4 treatment group of Example 9 was taken, and the hydroxyproline content in the lung tissue homogenate was detected using BioVision Hydroxyproline Acid Hydrolysis Assay Kit (Cat. No. K555-100) (the result is shown in FIG. 12), and one-way ANOVA was used for biostatistical analysis.

Experiment [2] has the same test system. The experiment is described as follows: Lung coefficient, bleomycin rat model (Examples 2-3). The experiment is classed as in vivo. The following applies: vs bleomycin group; 2.5 mg/kg peptide + 3 mg/kg bleomycin intratracheal, simultaneously; p<0.05; FIG. 1. The procedure: (§2) The rats were weighed before administration, intramuscularly injected with 65 mg/kg Zoletil anesthetic solution. After the rats entered the stage III anesthesia, the experimental rats were fixated in the lateral decubitus. Gavage needle size 12 was inserted into rat trachea through oral cavity along the glottis to instill with drug. The experimental animals were fed normally from the 1st day to the 7th day after intratracheal administration, and were weighed every day with feed and water ad libitum. […]
The rats in Example 2 were weighed and sacrificed by anesthesia overdose. […] After the wet weight of the whole lung was weighted by the electronic balance, the lung coefficient was calculated according to the formula, lung coefficient=lung mass (mg)/body weight (g) (the result is shown in FIG. 1).

Experiment [3] has the same test system. Put plainly: HE staining and alveolitis score of rat lung tissue (Example 4). The experiment is classed as in vivo. The following applies: 2.5 mg/kg peptide + 3 mg/kg bleomycin intratracheal; for inflammatory pathology score (degree of alveolitis, grade 0 to 3): vs BLM group, p<0.01, FIG. 3; for pathological changes in lung tissue (HE staining): vs model group, FIG. 2. How it is done: (§3) The rats were weighed before administration, intramuscularly injected with 65 mg/kg Zoletil anesthetic solution. After the rats entered the stage III anesthesia, the experimental rats were fixated in the lateral decubitus. Gavage needle size 12 was inserted into rat trachea through oral cavity along the glottis to instill with drug. The experimental animals were fed normally from the 1st day to the 7th day after intratracheal administration, and were weighed every day with feed and water ad libitum.
(§4) The rats in blank control group were received no treatment after anesthesia; the rats in model group (bleomycin) were intratracheally instilled with bleomycin (3 mg/kg); the rats in PBS control group were intratracheally instilled with an equal volume of sterile PBS buffer (0.01 M, pH=9.5); the rats in polypeptide control group were intratracheally instilled with 2.5 mg/kg of the polypeptide N2 (the solvent was 0.01 M, pH=9.5 PBS buffer); the rats in N2 treatment group were intratracheally instilled with 2.5 mg/kg of the polypeptide N2 and 3 mg/kg of bleomycin simultaneously, the rats in N3 treatment group were intratracheally instilled with 2.5 mg/kg of the polypeptide N3 and 3 mg/kg of bleomycin simultaneously.
The lung tissue of the rats of Example 2 was taken, fixed with 4% paraformaldehyde and embedded in paraffin. The wax block embedded the lung tissue was sectioned along the largest cross section. Pathological changes in lung tissue were observed using hematoxylin-eosin (HE) staining. Pathological changes in lung tissue were observed under a light microscope (low magnification) at a magnification of 100 times (the result is shown in FIG. 2).
According to the method provided by Szapie, et al., the degree of alveolitis was graded according to the range of lesions and could be divided into 0 to 3 grades, corresponding to 0 to 3 points. The evaluation indexes for the degree of alveolitis are as follows: grade 0, no alveolitis; grade 1, mild alveolitis, manifested as a slight increase in alveolar septum, infiltration of monocytes, near the pleura or localized, with a lesion range of less than 20% without alveolar structural damage; grade 2, moderate alveolitis, the lesion ranges from 20% to 50%, relatively severe near the pleura; grade 3, severe alveolitis, diffusely distributed, the lesion range is more than 50%, with pulmonary parenchymal lesion occasionally.

The test system is the same in experiment [4]. Put plainly: Inflammatory cells in bronchoalveolar lavage fluid, Wright-Giemsa staining (Example 5). Particulars: vs bleomycin group; 2.5 mg/kg peptide + 3 mg/kg bleomycin intratracheal; p<0.05; FIG. 4. The format is in vivo. The procedure: as §2
Bronchoalveolar lavage fluid was collected, and […] by centrifugation. […] The counting method was: the number of macrophages, lymphocytes, and neutrophils was calculated according to the total number of inflammatory cells based on the respective proportion of macrophages, lymphocytes, and neutrophils in 100 intact cells (the result is shown in FIG. 4).

Experiment [5] concerns Fibronectin, Collagen I and Collagen III. The experiment is described as follows: Western blot of extracellular matrix protein in lung tissue homogenate (Example 6). The experiment is classed as in vivo, rat. The following applies: vs bleomycin group, 2.5 mg/kg peptide intratracheal; for levels of Fibronectin, Collagen I and Collagen III proteins (grayscale value): p<0.05, FIG. 6; for intensities of the expression bands of Fibronectin, Collagen I and Collagen III in lung tissue: GAPDH internal reference, FIG. 5. The procedure:
as §3, §4
The rat lung tissue of Example 2 was taken, and homogenized using RIPA lysate (100 mg of lung tissue corresponding to 1 mL of lysate), centrifuged and the supernatant was taken, and then the protein concentration was determined by BCA method. Equal amounts of protein samples were taken and Western blot experiment was performed using anti-GAPDH, anti-Fibronectin, anti-Collagen I and anti-Collagen III antibodies (the result is shown in FIG. 5).
The grayscale value of each band was detected and analyzed using Image pro plus 6.0 image analysis software (the result is shown in FIG. 6). […] The detection of grayscale value supported the above-mentioned description.

For experiment [6], the system named is rat with pulmonary fibrosis induced by bleomycin. The experiment is described as follows: Hydroxyproline content in lung tissue homogenate, alkali hydrolysis kit (Example 7). The format is in vivo. Particulars: vs bleomycin group; 2.5 mg/kg peptide intratracheal; p<0.05; FIG. 7. How it is done:
as §2
The rats of Example 2 were taken, and the hydroxyproline content in lung tissue homogenate was detected using Boster Hydroxyproline Alkali Hydrolysis Assay Kit (Cat. No. A030) (the result is shown in FIG. 7).

For experiment [7], the system named is TGF-β/Smad signaling pathway. The experiment is described as follows: Western blot of Smad protein in lung tissue homogenate (Example 8). The format is in vivo, rat. The following applies: vs bleomycin group, 2.5 mg/kg peptide intratracheal; for levels of p-Smad2 and p-Smad3 proteins (grayscale value): p<0.05, FIG. 9; for intensities of the expression bands of p-Smad2 and p-Smad3 in lung tissue: GAPDH internal reference, FIG. 8. The procedure:
as §3, §4
The rat lung tissue of Example 2 was taken, and the tissue was homogenized using RIPA lysate (100 mg of lung tissue corresponding to 1 mL of lysate), centrifuged and the supernatant was taken, and then the protein concentration was determined by BCA method. Equal amounts of protein samples were taken and Western blot experiment was performed using anti-GAPDH, anti-p-Smad2 and anti-p-Smad3 antibodies (the result is shown in FIG. 8).
The grayscale value of each band was detected and analyzed using Image pro plus 6.0 image analysis software (the result is shown in FIG. 9). […] The detection of grayscale value supported the above-mentioned description.

Square brackets hold non-standard residues; d marks the D form. Primed or numbered codes have the meaning given here. Ends that are not written are not given here. PEG2′ = not defined here

With RFLAKENVTQD [N4], in the experiment on active TGF-β, the “content of active TGF-β in the lung tissue” value is listed as “decreased significantly”. Further, the “gene expression levels of ctgf, collagen I and collagen III in lung tissue” value in the experiment on TGF-β signaling pathway is recorded as “decreased significantly”. Moreover, in [1], the “hydroxyproline content in lung tissue” value is “decreased significantly”.
With YRVRFLAKENVTQDAED [N2], the “lung coefficients of the left lung, the right lung and the whole lung” value in experiment [2] is “decreased significantly”. In [3], the “inflammatory pathology score (degree of alveolitis, grade 0 to 3)” value is “significant alleviation” and the “pathological changes in lung tissue (HE staining)” value is on record as “a small amount of inflammatory cell infiltration in the interstitial”. In experiment [4], the “number of macrophages, heteromorphic nuclear cells and lymphocytes in bronchoalveolar lavage fluid” value was “decreased significantly”. Further, in experiment [5], the “levels of Fibronectin, Collagen I and Collagen III proteins (grayscale value)” value was “decreased significantly”; the “intensities of the expression bands of Fibronectin, Collagen I and Collagen III in lung tissue” value is “almost returned to the level of the control group”. Further, the “hydroxyproline content in lung tissue” value in experiment [6] was “decreased significantly”. In experiment [7], the “levels of p-Smad2 and p-Smad3 proteins (grayscale value)” value is listed as “decreased significantly”; the “intensities of the expression bands of p-Smad2 and p-Smad3 in lung tissue” value is recorded as “almost returned to the level of the control group”.
With “(PEG2)TyrArgValArgPheLeuAlaLysGluAsnValThrGlnAspAlaGluAsp ([PEG2′]YRVRFLAKENVTQDAED; listed as Homo sapiens) [N3]”, the “lung coefficients of the left lung, the right lung and the whole lung” value in [2] is listed as “decreased significantly”. In addition, in [3], the “inflammatory pathology score (degree of alveolitis, grade 0 to 3)” value is recorded as “significant alleviation” and the “pathological changes in lung tissue (HE staining)” value is “a small amount of inflammatory cell infiltration in the interstitial”. The “number of macrophages, heteromorphic nuclear cells and lymphocytes in bronchoalveolar lavage fluid” value in experiment [4] was “decreased significantly”. Moreover, in [5], the “levels of Fibronectin, Collagen I and Collagen III proteins (grayscale value)” value was “decreased significantly”; the “intensities of the expression bands of Fibronectin, Collagen I and Collagen III in lung tissue” value is reported as “almost returned to the level of the control group”. The “hydroxyproline content in lung tissue” value in experiment [6] is “decreased significantly”. Moreover, in [7], the “levels of p-Smad2 and p-Smad3 proteins (grayscale value)” value is “decreased significantly”; the “intensities of the expression bands of p-Smad2 and p-Smad3 in lung tissue” value is on record as “almost returned to the level of the control group”.
